Measured values reported in patent publication US5288709A, “Erythromycin derivatives” (priority 1991, dated 1994).
≈ marks a conversion by molar mass, not a printed value. Where “and” joins values, the source holds several entries; their conditions need not be identical. Equal entries are not always repeated. Where two headings read alike, the source gives them in different places.

Legend:
Escherichia coli JUHL = experiment: In-vitro antimicrobial activity primary screen (agar dilution MIC); assay type: cell-based; details: Escherichia coli, 24 h, Escherichia coli JUHL; BHI agar, 20-24 h
Outline: (§1)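 MIC read after 20-24 hours at 35 37° C as the lowest compound level with no growth, only haze or sparse colonies relative to drug-free growth control. Plates were BHI agar carrying serial compound dilutions, replicator-inoculated at 1:100, or 1:10 for slow-growing strains.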

[1] = tested on: Micrococcus luteus ATCC 9341; experiment: as above; assay type: cell-based; details: BHI agar, 20-24 h
Outline: as §1

[2] = tested on: Micrococcus luteus ATCC 4698; experiment: as above; assay type: cell-based; details: 20-24 h
Outline: as §1

Escherichia coli DC-2 = experiment: as above; assay type: cell-based; details: Escherichia coli DC-2, BHI agar, 20-24 h
Outline: as §1

[3] = tested on: Streptococcus pyrogenes EES61; experiment: as above; assay type: cell-based; details: BHI agar, 20-24 h
Outline: as §1

[4] = tested on: Klebsiella pneumoniae ATCC 8045; experiment: as above; assay type: cell-based; details: Klebsiella pneumoniae, ATCC8045, 24 h
Outline: as §1

[5] = tested on: Streptococcus bovis A5169; experiment: as above; assay type: cell-based; details: Streptococcus equinus, BHI agar, 20-24 h
Outline: as §1

Acinetobacter SP CMX 669 = experiment: as above; assay type: cell-based; details: Acinetobacter SP CMX 669, BHI agar, 20-24 h
Outline: as §1

Pseudomonas cepacia 2961 = experiment: as above; assay type: cell-based; details: BHI agar, 20-24 h
Outline: as §1

[6] = tested on: Staphylococcus aureus ATCC 6538P; experiment: as above; assay type: cell-based; details: BHI agar, 20-24 h
Outline: as §1

[7] = tested on: Pseudomonas aeruginosa A5007; experiment: as above; assay type: cell-based; details: Pseudomonas aeruginosa, A5007, 24 h
Outline: as §1

[8] = tested on: Pseudomonas aeruginosa K799/WT; experiment: as above; assay type: cell-based; details: Pseudomonas aeruginosa, K799/WT, 24 h
Outline: as §1

Escherichia coli H560 = experiment: as above; assay type: cell-based; details: Escherichia coli, H560, 24 h, Escherichia coli H560; BHI agar, 20-24 h
Outline: as §1

[9] = tested on: Pseudomonas aeruginosa K799/61; experiment: as above; assay type: cell-based
Outline: as §1

[10] = tested on: Staphylococcus epidermidis 3519; experiment: as above; assay type: cell-based; details: BHI agar, 20-24 h
Outline: as §1

[11] = tested on: Enterobacter aerogenes ATCC 13048; experiment: as above; assay type: cell-based; details: Klebsiella aerogenes, ATCC13048, 24 h
Outline: as §1

[12] = tested on: Streptococcus pyrogenes 2548 INDUC; experiment: as above; assay type: cell-based; details: BHI agar, 20-24 h
Outline: as §1

Escherichia coli SS = experiment: as above; assay type: cell-based; details: BHI agar, 20-24 h
Outline: as §1

[13] = tested on: Enterococcus faecium ATCC 8043; experiment: as above; assay type: cell-based
Outline: as §1

[14] = tested on: Providencia stuartii CMX 640; experiment: as above; assay type: cell-based; details: Providencia stuartii, CMX640, 24 h
Outline: as §1

[15] = tested on: Staphylococcus aureus (NCTC 10649); experiment: In-vivo acute mouse protection assay; parameters: species or system Staphylococcus aureus; female Swiss albino mice; details: dosed 1 and 5 h post-infection, observed 7 days
Experimental: An acute mouse protection test was conducted on ten mice with each of three concentrations of selected compounds of the invention. Each concentration was a four-fold dilution of the previous concentration. The initial concentration will vary with the microorganism with which the mouse is challenged.
The acute mouse protection test was conducted on female, Swiss albino mice, 18-20 grams in weight. […] To check the potency of the inoculum, a titration of the indicated test organism was carried out in control animals. The titration determines the LD50 for a particular microorganism. The treatment groups of animals were dosed orally, by gavage, or subcutaneously with the test compounds at 1 and 5 hours post-infection and observed for 7 days. The ED50 were calculated using the mortality data collected.

[16] = tested on: Staphylococcus aureus CMX 553; experiment: In-vitro antimicrobial activity primary screen (agar dilution MIC); assay type: cell-based; details: BHI agar, 20-24 h
Outline: (§2)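 MIC is read as the lowest compound level yielding no growth, slight haze or sparse colonies on the inoculum spot, relative to a drug-free plate. Strains were replicator-inoculated (1:100 dilution) onto BHI agar plates holding twelve dilutions and held at 35-37 °C for 20-24 h, with erythromycin A as comparator.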

[17] = tested on: Staphylococcus aureus CMX 503A; experiment: as above; assay type: cell-based; details: BHI agar, 20-24 h
Outline: as §2

[18] = tested on: Staphylococcus aureus CMX 686B; experiment: as above; assay type: cell-based; details: CMX686B, BHI agar, 20-24 h, read-out: MIC
Outline: as §2

[19] = tested on: Pseudomonas aeruginosa BMH10; experiment: as above; assay type: cell-based; details: Pseudomonas aeruginosa, BMH10, 24 h, BHI agar, 20-24 h
Outline: as §1

[20] = tested on: Staphylococcus aureus A5177; experiment: as above; assay type: cell-based; details: Staphylococcus aureus, A5177, 24 h, Staphylococcus aureus A5177; BHI agar, 20-24 h
Outline: as §1

Staphylococcus aureus 45 = experiment: as above; assay type: cell-based; details: BHI agar, 20-24 h, read-out: MIC
Outline: as §1

[21] = tested on: Streptococcus agalactiae CMX 508; experiment: as above; assay type: cell-based; details: CMX508, BHI agar, 20-24 h, read-out: MIC
Outline: as §1

[22] = tested on: Staphylococcus aureus 45 RAR2; experiment: as above; assay type: cell-based; details: Staphylococcus aureus, 45RAR2, 24 h, BHI agar, 20-24 h
Outline: as §1

[23] = Burkholderia cepacia, 2961, 24 h
[24] = Staphylococcus aureus, ATCC6538P, 24 h
[25] = Staphylococcus aureus, CMX553, 24 h, read-out: MIC
[26] = Staphylococcus aureus, CMX503A, 24 h, read-out: MIC

CC[C@H]1OC(=O)[C@H](C)[C@@H](O[C@H]2C[C@@](C)(OC)[C@@H](O)[C@H](C)O2)[C@H](C)[C@@H](O[C@@H]2O[C@H](C)C[C@H](N(C)C)[C@H]2O)[C@](C)(O)C[C@@H](C)C(=O)[C@H](C)[C@@H](O)[C@]1(C)O [Std, Erythromycin A, reference compound] gave an MIC (Escherichia coli JUHL) of 25 µg/mL (≈ 34.1 µM), an MIC [1] of 0.02 microgram/mL and an MIC ([2]; BHI agar) of 0.2 microgram/mL. For the same compound, the MIC ([2]; Micrococcus luteus, ATCC4698, 24 h, BHI agar) was 0.1 µg/mL (≈ 0.136 µM), the MIC (Escherichia coli DC-2) was 25 microgram/mL and the MIC ([3]; Streptococcus, EES61, 24 h) was 0.02 µg/mL (≈ 0.0273 µM). The MIC [4] was 100 µg/mL (≈ 136 µM), the MIC ([5]; A5169, 24 h) was 0.02 µg/mL (≈ 0.0273 µM) and the MIC (Acinetobacter SP CMX 669) was 3.1 microgram/mL. It also gave an MIC (Acinetobacter SP CMX 669; Acinetobacter, SPCMX669, 24 h) of 6.2 µg/mL (≈ 8.45 µM), an MIC (Pseudomonas cepacia 2961) of 100 microgram/mL and an MIC (Pseudomonas cepacia 2961; [23]) greater than 100 µg/mL. The MIC [6] was 0.1 microgram/mL, the MIC [6, 24] was 0.2 µg/mL (≈ 0.273 µM) and the MIC [7] was greater than 100 µg/mL. The MIC [8] was 100 µg/mL (≈ 136 µM), the MIC (Escherichia coli H560) was 25 µg/mL (≈ 34.1 µM) and the MIC ([9]; Pseudomonas aeruginosa K799/61, BHI agar, 20-24 h) was 1.56 microgram/mL. It also gave an MIC ([9]; Pseudomonas aeruginosa, K799/61, 24 h) of 0.78 µg/mL (≈ 1.06 µM), an MIC [10] of 0.1 microgram/mL and an MIC ([10]; Staphylococcus epidermidis, 3519, 24 h) of 0.2 µg/mL (≈ 0.273 µM). For the same compound, the MIC [11] was 100 µg/mL (≈ 136 µM), the MIC [12] was 1.56 microgram/mL and the MIC ([12]; Streptococcus, 2548INDUC, 24 h) was 3.1 µg/mL (≈ 4.22 µM). The MIC (Escherichia coli SS) was 0.39 microgram/mL, the MIC (Escherichia coli SS; Escherichia coli, 24 h) was 0.2 µg/mL (≈ 0.273 µM) and the MIC ([13]; Enterococcus faecium, ATCC8043, 24 h) was 0.05 µg/mL (≈ 0.0681 µM). The MIC [14] was greater than 100 µg/mL, the ED50 ([15]; Staphylococcus aureus, NCTC10649, sc, 168 h, subcutaneous) was 12.9 mg/kg and the ED50 ([15]; subcutaneous, 10080 min) was 8.3 mg/kg and 11.6 mg/kg. The MIC [16] was 0.1 microgram/mL, the MIC [16, 25] was 0.2 µg/mL (≈ 0.273 µM) and the MIC [17] was 0.1 microgram/mL. For the same compound, the MIC [17, 26] was 0.2 µg/mL (≈ 0.273 µM) and the MIC [18] was 0.2 µg/mL (≈ 0.273 µM).

For CC[C@H]1OC(=O)[C@H](C)[C@@H](O[C@H]2C[C@@](C)(OC)[C@H](N)[C@H](C)O2)[C@H](C)[C@@H](O[C@@H]2O[C@H](C)C[C@H](N(C)C)[C@H]2O)[C@](C)(O)C[C@@H](C)[C@@H]2O[C@@]1(C)[C@@H](O)[C@H]2C [Example 13, (4"R,9S,11S) 4"-Amino-9-deoxo-4",12-dideoxy-9,12-epoxyerythromycin A], the MIC (Escherichia coli JUHL) was 50 µg/mL (≈ 69.7 µM), the MIC ([1]; Micrococcus luteus, ATCC9341, 24 h) was 0.01 µg/mL (≈ 0.0139 µM) and the MIC ([2]; ATCC4698, BHI agar, read-out: MIC) was 0.05 µg/mL (≈ 0.0697 µM). For the same compound, the MIC [19] was 100 µg/mL (≈ 139 µM), the MIC (Escherichia coli DC-2; Escherichia coli, DC2, 24 h) was 50 µg/mL (≈ 69.7 µM) and the MIC ([3]; read-out: MIC) was less than 0.005 µg/mL. The MIC ([5]; read-out: MIC) was 0.01 µg/mL (≈ 0.0139 µM), the MIC (Pseudomonas cepacia 2961; [23]) was greater than 100 µg/mL and the MIC [6, 24] was 0.2 µg/mL (≈ 0.279 µM). The MIC [7] was greater than 100 µg/mL, the MIC [8] was 100 µg/mL (≈ 139 µM) and the MIC (Escherichia coli H560) was 12.5 µg/mL (≈ 17.4 µM). It also gave an MIC ([9]; Pseudomonas aeruginosa, K799/61, 24 h, Pseudomonas aeruginosa K799/61, BHI agar, 20-24 h) of 1.56 µg/mL (≈ 2.18 µM), an MIC [20] of 0.78 µg/mL (≈ 1.09 µM) and an MIC (Staphylococcus aureus 45) of 0.2 µg/mL (≈ 0.279 µM). The MIC ([10]; read-out: MIC) was 0.2 µg/mL (≈ 0.279 µM), the MIC [21] was 0.02 µg/mL (≈ 0.0279 µM) and the MIC [22] was 0.2 µg/mL (≈ 0.279 µM). For the same compound, the MIC [11] was 100 µg/mL (≈ 139 µM), the MIC ([12]; read-out: MIC) was 0.78 µg/mL (≈ 1.09 µM) and the MIC (Escherichia coli SS; Escherichia coli, 24 h) was 0.2 µg/mL (≈ 0.279 µM). The MIC ([13]; ATCC8043, Enterococcus faecium ATCC 8043, BHI agar, 20-24 h, read-out: MIC) was 0.05 µg/mL (≈ 0.0697 µM), the MIC [14] was greater than 100 µg/mL and the ED50 ([15]; Staphylococcus aureus, NCTC10649, 168 h, oral, read-out: ED50) was 126 mg/kg. It also gave an ED50 ([15]; Staphylococcus aureus, NCTC10649, sc, 168 h, subcutaneous, read-out: ED50) of 39.6 mg/kg, an MIC [16, 25] of 0.2 µg/mL (≈ 0.279 µM) and an MIC [17, 26] of 0.2 µg/mL (≈ 0.279 µM). For the same compound, the MIC [18] was 0.2 µg/mL (≈ 0.279 µM).
